Source: patent publication US20140128352A1, “COMPOUNDS AND METHODS FOR MODULATING MITOCHONDRIAL METABOLISM AND REACTIVE OXYGEN SPECIES PRODUCTION” (Buck Institute for Research on Aging, priority 2012, published 2014)
Where two headings read alike, the source gives them in different places.

Assays:
[1] = test system: ubiquinone binding site of complex I (IQ); assay: High-throughput screen: ROS production from ubiquinone binding site of complex I (IQ), isolated skeletal muscle mitochondria; assay type: biochemical, rat; conditions: for IQ: percent change in ROS from DMSO controls
Experimental: (§1) Skeletal muscle mitochondria were isolated from 5-8 week old female Wistar rats (Harlan Laboratories). Minced muscle was homogenized in buffer containing bacterial protease Type VIII prior to differential centrifugation to separate mitochondria from other tissue components. Unless otherwise stated, freshly isolated muscle mitochondria were assayed in buffer containing 120 mM KCl, 5 mM HEPES, 1 mM EGTA, 0.3% (w/v) bovine serum albumin. Where indicated, CaCl2 was added to yield a final free concentration of 250 nM calcium at pH 7.0 at 37° C.
(§2) Compounds (10 mM in DMSO) were randomly selected from a library of 24,000 compounds obtained from ChemBridge and curated by the lab of Robert Hughes at the Buck Institute. Master screening plates were prepared using a Biomek FX liquid handling workstation (Beckman) to transfer 1 μL of each compound into individual wells on 96-well storage plates (80 compounds per plate). Master plates were sealed with foil and stored at −80° C. Just prior to use, plates were brought to room temperature and diluted 300-fold with standard buffer (13.3X=33.3 μM). To monitor the performance of each assay throughout screening and to provide intra-plate normalization reference points, DMSO negative controls and known mitochondrial inhibitor positive controls were included on each Master compound plate.
(§3) Total amounts of superoxide and H2O2 production were determined fluorometrically as H2O2, without distinguishing between them, in the presence of exogenous superoxide dismutase (25 units/mL final), horseradish peroxidase (1 unit/mL final), and Amplex UltraRed (25 μM final) as described (Affourtit, C. et al. (2012) Measurement of proton leak and electron leak in isolated mitochondria. Methods Mol. Biol. 810: 165-82). Just prior to use, a bulk 3.3X solution was made in standard buffer and distributed into a 2 mL deep well 96-well transfer plate.
To assess the effects of a compound on ROS production from the ubiquinone binding site of complex I (IQ), Start Solution containing 5 mM succinate was distributed into standard 96-well transfer plates. A Biomek FX workstation was programmed to dispense solutions into black 96-well assay plates. Solutions were dispensed to all assay plates in the following order: ROS Detection solution described in Example 3, Mitochondria solution described in Example 1 to a final concentration of 0.1 mg/ml, and Compound dilutions described in Example 2. Duplicate assay plates were made and each was initiated by the addition of 3.3X Start solution containing 5 mM succinate. Plates were incubated in the dark at room temperature for 30-40 minutes before acquiring endpoint fluorescence using a Victor 3V plate reader (Perkin Elmer) equipped with 550/590 nm excitation/emission filters.
The fluorescence values in each well were scaled as the percent change from the intra-plate DMSO controls with the appropriate inhibitor positive controls defined as −100%. Following initial scaling, intra-plate normalized values were subjected to Tukey's two-way median polish to remove row and column dependent positional effects (Malo et al, 2006).

[2] = biological target: T1, flavin binding site of complex I (IF) (Rattus norvegicus, UniProt Q5XIH3); assay: High-throughput screen: ROS production from flavin binding site of complex I (IF); assay type: biochemical
T1 construct: freshly isolated muscle mitochondria were assayed; from tissue; host or cells: rat skeletal muscle mitochondria (Wistar, Harlan Laboratories)
T1 sequence (Q5XIH3 21-464 limits assumed, one chain of several): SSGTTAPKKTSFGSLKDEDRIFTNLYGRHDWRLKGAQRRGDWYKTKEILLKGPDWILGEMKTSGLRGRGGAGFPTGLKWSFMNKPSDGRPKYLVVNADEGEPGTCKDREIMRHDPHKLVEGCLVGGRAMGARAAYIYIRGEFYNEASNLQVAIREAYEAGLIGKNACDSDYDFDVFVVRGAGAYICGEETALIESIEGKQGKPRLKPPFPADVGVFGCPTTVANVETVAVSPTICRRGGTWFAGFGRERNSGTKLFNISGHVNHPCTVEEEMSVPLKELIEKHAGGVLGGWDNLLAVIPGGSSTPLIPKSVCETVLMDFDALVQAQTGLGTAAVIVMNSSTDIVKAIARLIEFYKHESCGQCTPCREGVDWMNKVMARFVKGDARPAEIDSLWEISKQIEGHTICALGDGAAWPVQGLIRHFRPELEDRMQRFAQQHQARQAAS
Experimental: as §1
Master screening plates were prepared using a Biomek FX liquid handling workstation (Beckman) to transfer 1 μL of each compound into individual wells on 96-well storage plates (80 compounds per plate). […] Just prior to use, plates were brought to room temperature and diluted 300-fold with standard buffer (13.3X=33.3 μM). To monitor the performance of each assay throughout screening and to provide intra-plate normalization reference points, DMSO negative controls and known mitochondrial inhibitor positive controls were included on each Master compound plate.
as §3
To assess the effects of a compound on ROS production from the flavin binding site of complex I (IF), Start Solution containing 5 mM glutamate, 5 mM malate and 4 μM rotenone was distributed into standard 96-well transfer plates. A Biomek FX workstation was programmed to dispense solutions into black 96-well assay plates. Solutions were dispensed to all assay plates in the following order: ROS Detection solution described in Example 3, Mitochondria solution described in Example 1 to a final concentration of 0.3 mg/ml, and Compound dilutions described in Example 2. Duplicate assay plates were made and each was initiated by the addition of 3.3X Start solution containing 5 mM glutamate, 5 mM malate and 4 μM rotenone. Plates were incubated in the dark at room temperature for 30-40 minutes before acquiring endpoint fluorescence using a Victor 3V plate reader (Perkin Elmer) equipped with 550/590 nm excitation/emission filters.
The fluorescence values in each well were scaled as the percent change from the intra-plate DMSO controls with the appropriate inhibitor positive controls defined as −100%. Following initial scaling, intra-plate normalized values were subjected to Tukey's two-way median polish to remove row and column dependent positional effects (Malo, N. et al. (2006) Statistical practice in high-throughput screening data analysis. Nat. Biotechnol. 24(2): 167-75).

[3] = biological target: T2, outer ubiquinone binding site of complex III (IIIQO) (Rattus norvegicus, UniProt P00159+P20788); assay: High-throughput screen: ROS production from outer ubiquinone binding site of complex III (IIIQO); assay type: biochemical; conditions: for IIIQO: Table 8
T2 construct: freshly isolated muscle mitochondria were assayed; from tissue; host or cells: rat skeletal muscle mitochondria (Wistar, Harlan Laboratories)
Experimental: as §1, §2, §3
To assess the effects of a compound on ROS production from the outer ubiquinone binding site of complex III (IIIQO), Start Solution containing 5 mM succinate, 4 μM rotenone and 2.5 μM antimycin A was distributed into standard 96-well transfer plates. A Biomek FX workstation was programmed to dispense solutions into black 96-well assay plates. Solutions were dispensed to all assay plates in the following order: ROS Detection solution described in Example 3, Mitochondria solution described in Example 1 to a final concentration of 0.1 mg/ml, and Compound dilutions described in Example 2. Duplicate assay plates were made and each was initiated by the addition of 3.3X Start solution containing 5 mM succinate, 4 μM rotenone and 2.5 μM antimycin A. Plates were incubated in the dark at room temperature for 30-40 minutes before acquiring endpoint fluorescence using a Victor 3V plate reader (Perkin Elmer) equipped with 550/590 nm excitation/emission filters.
The fluorescence values in each well were scaled as the percent change from the intra-plate DMSO controls with the appropriate inhibitor positive controls defined as −100%. Following initial scaling, intra-plate normalized values were subjected to Tukey's two-way median polish to remove row and column dependent positional effects (Malo et al., 2006).

[4] = biological target: T3, succinate dehydrogenase/complex II (SDH) (Rattus norvegicus, UniProt P21913+Q641Z9+Q6PCT8+Q920L2); assay: High-throughput screen: ROS production from succinate dehydrogenase/complex II (SDH); assay type: biochemical; conditions: percent change in ROS from DMSO controls; for inhibition at 2.5 µM: Table 7
T3 construct: freshly isolated muscle mitochondria were assayed; from tissue; host or cells: rat skeletal muscle mitochondria (Wistar, Harlan Laboratories)
T3 sequence (Q920L2 35-656): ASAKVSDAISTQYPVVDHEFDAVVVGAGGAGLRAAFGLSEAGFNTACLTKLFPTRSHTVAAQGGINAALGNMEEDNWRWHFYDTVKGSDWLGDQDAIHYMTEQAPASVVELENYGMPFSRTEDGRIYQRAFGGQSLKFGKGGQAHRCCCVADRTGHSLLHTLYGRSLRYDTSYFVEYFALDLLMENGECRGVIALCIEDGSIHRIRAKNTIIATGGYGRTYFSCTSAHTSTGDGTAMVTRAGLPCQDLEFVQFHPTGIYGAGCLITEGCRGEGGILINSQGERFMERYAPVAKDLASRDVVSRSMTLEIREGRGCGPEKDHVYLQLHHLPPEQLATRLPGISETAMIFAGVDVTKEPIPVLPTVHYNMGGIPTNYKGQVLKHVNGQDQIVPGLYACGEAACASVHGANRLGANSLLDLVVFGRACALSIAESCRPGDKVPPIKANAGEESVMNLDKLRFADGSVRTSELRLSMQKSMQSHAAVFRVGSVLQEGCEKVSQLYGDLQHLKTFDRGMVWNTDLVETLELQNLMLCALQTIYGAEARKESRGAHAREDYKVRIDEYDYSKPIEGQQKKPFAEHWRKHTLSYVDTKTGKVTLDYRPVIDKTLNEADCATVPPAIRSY
T3 sequence (P21913 31-282): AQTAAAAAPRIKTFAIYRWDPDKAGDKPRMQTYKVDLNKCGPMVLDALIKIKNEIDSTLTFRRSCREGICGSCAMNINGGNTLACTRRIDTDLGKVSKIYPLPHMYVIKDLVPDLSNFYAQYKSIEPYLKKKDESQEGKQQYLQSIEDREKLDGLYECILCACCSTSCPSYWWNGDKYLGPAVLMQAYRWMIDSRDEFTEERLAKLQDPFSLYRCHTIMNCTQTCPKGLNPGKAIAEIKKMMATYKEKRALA
T3 sequence (Q641Z9 30-169 limits assumed): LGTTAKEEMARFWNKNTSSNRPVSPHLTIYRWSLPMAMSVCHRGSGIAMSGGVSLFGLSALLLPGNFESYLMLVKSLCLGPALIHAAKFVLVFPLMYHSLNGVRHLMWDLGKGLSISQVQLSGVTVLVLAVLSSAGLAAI
T3 sequence (Q6PCT8 57-159): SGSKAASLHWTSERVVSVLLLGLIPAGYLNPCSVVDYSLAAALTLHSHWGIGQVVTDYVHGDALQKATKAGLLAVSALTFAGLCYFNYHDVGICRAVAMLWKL

[5] = biological target: T4, glycerol-3-phosphate dehydrogenase (GPDH) (Rattus norvegicus, UniProt P35571); assay: High-throughput screen: ROS production from glycerol-3-phosphate dehydrogenase (GPDH); assay type: biochemical; parameters: inhibition: dose or concentration left out as unconfirmed; conditions: percent change in ROS from DMSO controls; for inhibition: Table 7
T4 construct: The activity of GPDH in intact mitochondria (0.3 mg/mL) was measured; from tissue; host or cells: rat skeletal muscle mitochondria (Wistar, Harlan Laboratories)
T4 sequence (P35571 43-727): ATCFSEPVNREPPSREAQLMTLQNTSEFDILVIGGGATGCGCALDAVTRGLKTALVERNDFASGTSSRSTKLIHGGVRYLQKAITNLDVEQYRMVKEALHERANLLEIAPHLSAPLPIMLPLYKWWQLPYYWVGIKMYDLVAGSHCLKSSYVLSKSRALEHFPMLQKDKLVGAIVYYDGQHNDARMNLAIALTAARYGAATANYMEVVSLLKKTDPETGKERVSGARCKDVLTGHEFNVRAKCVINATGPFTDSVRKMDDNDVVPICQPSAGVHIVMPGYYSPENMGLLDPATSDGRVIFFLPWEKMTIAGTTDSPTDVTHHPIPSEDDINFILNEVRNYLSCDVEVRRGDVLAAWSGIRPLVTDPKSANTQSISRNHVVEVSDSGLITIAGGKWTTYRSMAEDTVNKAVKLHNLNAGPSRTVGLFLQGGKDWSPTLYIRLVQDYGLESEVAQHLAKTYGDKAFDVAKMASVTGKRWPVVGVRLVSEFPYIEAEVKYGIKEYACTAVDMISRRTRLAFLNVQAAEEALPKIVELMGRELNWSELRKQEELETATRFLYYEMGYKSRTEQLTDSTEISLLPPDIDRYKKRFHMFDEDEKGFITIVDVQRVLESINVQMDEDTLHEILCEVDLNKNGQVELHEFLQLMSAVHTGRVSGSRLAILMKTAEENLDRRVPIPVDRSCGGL
Experimental: as §1, §2, §3
To assess the effects of a compound on ROS production from glycerol-3-phosphate dehydrogenase (GPDH), Start Solution containing 25 mM glycerol phosphate, 4 μM rotenone, 2.5 μM antimycin A, 1 mM malonate, 2 μM myxothiazol was distributed into standard 96-well transfer plates. A Biomek FX workstation was programmed to dispense solutions into black 96-well assay plates. Solutions were dispensed to all assay plates in the following order: ROS Detection solution described in Example 3, Mitochondria solution described in Example 1 to a final concentration of 0.2 mg/ml, and Compound dilutions described in Example 2. Duplicate assay plates were made and each was initiated by the addition of 3.3X Start solution containing 25 mM glycerol phosphate, 4 μM rotenone, 2.5 μM antimycin A, 1 mM malonate, 2 μM myxothiazol. Plates were incubated in the dark at room temperature for 30-40 minutes before acquiring endpoint fluorescence using a Victor 3V plate reader (Perkin Elmer) equipped with 550/590 nm excitation/emission filters.
The fluorescence values in each well were scaled as the percent change from the intra-plate DMSO controls. […] Following initial scaling, intra-plate normalized values were subjected to Tukey's two-way median polish to remove row and column dependent positional effects (Malo et al., 2006).

[6] = test system: mitochondrial membrane potential (ΔΨm); assay: Membrane potential (ΔΨm) counterscreen with TMRM; conditions: malate, nigericin
[7] = Table 3, 5 mM glutamate, 5 mM malate, 4 μM rotenone, compounds 2.5 μM, percent change from DMSO, positive control −100%, read-out: % Reduction in ROS production (IF)
[8] = Table 7, percent change in ROS from DMSO controls, read-out: IF
[9] = Table 8, percent change in ROS from DMSO controls
[10] = Table 9, percent change in ROS from DMSO controls
[11] = Table 7, percent change in ROS from DMSO controls, read-out: IIIQO
[12] = percent change in ROS from DMSO controls
[13] = Table 9, percent change in ROS from DMSO controls, read-out: IIIQo

| inhibition at 2.5 µM [3, 11] [%] | IIIQO [3, 12] | inhibition at 2.5 µM [3, 13] [%] | inhibition at 2.5 µM [4] [%] | SDH ([4]; Table 8) | SDH ([4]; Table 9) | inhibition [5] [%] | GPDH ([5]; Table 8) | GPDH ([5]; Table 9) | inhibition at 2.5 µM ([3]; Table 4, 5 mM succinate, 4 μM rotenone, 2.5 μM antimycin A, compounds 2.5 μM, percent change from DMSO, read-out: % Reduction in ROS production (IIIQO)) [%] | Structure (SMILES) | IQ ([1]; Table 7) | IQ ([1]; Table 8) | IQ ([1]; Table 9) | inhibition at 2.5 µM [2, 7] [%] | inhibition at 2.5 µM [2, 8] [%] | IF [2, 9] | IF [2, 10] | ΔΨm ([6]; Table 8, glutamate) | ΔΨm ([6]; Table 9, glutamate) | % Reduction in ROS production (IQ) ([1]; Table 2, 5 mM succinate, compounds 2.5 μM, percent change from DMSO, positive control −100%) [%] |
| --- | --- | --- | --- | --- | --- | --- | --- | --- | --- | --- | --- | --- | --- | --- | --- | --- | --- | --- | --- | --- |
| 24.7 | −24.7 | 24.7 | -1.2 | 1.2 | 1.2 | -2.6 | 2.6 | 2.6 | 24.7 | COc1ccc(-c2ccccc2)cc1NCC1=CC[C@H]2C[C@@H]1C2(C)C [Compound 41] | 0.2 | 0.2 | 0.2 | – | -6.6 | 6.6 | 6.6 | 2.3 | 2.3 | – |
| 9.9 | −9.9 | 9.9 | -1.7 | 1.7 | 1.7 | 1.8 | −1.8 | −1.8 | – | Cc1ccc(C(C)C)c(OCC(O)CN2CCN(Cc3ccccc3)CC2)c1.Cl.Cl (stereo not drawn) [Compound 21] | 0.0 | 0.0 | 0.0 | 23 | 23 | −23.0 | −23.0 | −0.3 | −0.3 | – |

Further lines, the molecule ahead of its results:

| Structure (SMILES) | inhibition at 2.5 µM [3, 11] [%] | IIIQO [3, 12] | inhibition at 2.5 µM [3, 13] [%] | inhibition at 2.5 µM [4] [%] | SDH ([4]; Table 8) | SDH ([4]; Table 9) | inhibition [5] [%] | GPDH ([5]; Table 8) | GPDH ([5]; Table 9) | inhibition at 2.5 µM ([3]; Table 4, 5 mM succinate, 4 μM rotenone, 2.5 μM antimycin A, compounds 2.5 μM, percent change from DMSO, read-out: % Reduction in ROS production (IIIQO)) [%] | IQ ([1]; Table 7) | IQ ([1]; Table 8) | IQ ([1]; Table 9) | inhibition at 2.5 µM [2, 7] [%] | inhibition at 2.5 µM [2, 8] [%] | IF [2, 9] | IF [2, 10] | ΔΨm ([6]; Table 8, glutamate) | ΔΨm ([6]; Table 9, glutamate) | % Reduction in ROS production (IQ) ([1]; Table 2, 5 mM succinate, compounds 2.5 μM, percent change from DMSO, positive control −100%) [%] |
| --- | --- | --- | --- | --- | --- | --- | --- | --- | --- | --- | --- | --- | --- | --- | --- | --- | --- | --- | --- | --- |
| O=C(Nc1ccccc1F)[C@@H]1C2C=CC(C2)[C@@H]1C(=O)O (stereo partly drawn) [Compound 20] | -1.2 | 1.2 | -1.2 | 0.7 | −0.7 | −0.7 | 1.7 | −1.7 | −1.7 | – | 0.2 | 0.2 | 0.2 | 24 | 24 | −24.0 | −24.0 | −0.3 | −0.3 | – |
| CCCN(CCO)Cc1ccc2c(c1)c1ccccc1n2CC [Compound 15] | 7.5 | −7.5 | 7.5 | 2.7 | −2.7 | −2.7 | 2.5 | −2.5 | −2.5 | – | −0.1 | −0.1 | −0.1 | 27.6 | 27.6 | −27.6 | −27.6 | −0.9 | −0.9 | – |
| CC1=CC(C)C(C2OCC(CN3CCCCC3)O2)C(C)C1 (stereo not drawn) [Compound 13] | 9 | −9.0 | 9 | 2.8 | −2.8 | −2.8 | 1.2 | −1.2 | −1.2 | – | 0.1 | 0.1 | 0.1 | 39 | 39 | −39.0 | −39.0 | −0.5 | −0.5 | – |
| Cc1ccccc1NS(=O)(=O)c1ccc(C2CCCCC2)cc1 [Compound 9] | 2.7 | −2.7 | 2.7 | -0.3 | 0.3 | 0.3 | -1 | 1.0 | 1.0 | – | −31.2 | −31.2 | −31.2 | – | -0.4 | 0.4 | 0.4 | −0.1 | −0.1 | −31.2 |
